US20100267752A1, “3-HYDROQUINAZOLIN-4-ONE DERIVATIVES FOR USE AS STEAROYL CoA DESATURASE INHIBITORS” (Gilead Palo Alto, Inc., priority 2008, published 2010)

target: T1, SCD (stearoyl-CoA desaturase) (Rattus norvegicus, UniProt P07308); test: SCD assay with rat liver microsomes, [3H]stearoyl CoA (adapted from Talamo and Bloch); format: biochemical; conditions: rat liver microsomes 0.2 mg/ml final, 30 min preincubation, 45 min reaction at room temperature
T1 construct: The rat liver microsomes were collected according to the procedure described in Ozols (1990) Methods Enzm, 182:225; from tissue; host or cells: liver microsomes of male Sprague Dawley rats, SCD induced by a carbohydrate-rich diet
T1 sequence (P07308 1-358): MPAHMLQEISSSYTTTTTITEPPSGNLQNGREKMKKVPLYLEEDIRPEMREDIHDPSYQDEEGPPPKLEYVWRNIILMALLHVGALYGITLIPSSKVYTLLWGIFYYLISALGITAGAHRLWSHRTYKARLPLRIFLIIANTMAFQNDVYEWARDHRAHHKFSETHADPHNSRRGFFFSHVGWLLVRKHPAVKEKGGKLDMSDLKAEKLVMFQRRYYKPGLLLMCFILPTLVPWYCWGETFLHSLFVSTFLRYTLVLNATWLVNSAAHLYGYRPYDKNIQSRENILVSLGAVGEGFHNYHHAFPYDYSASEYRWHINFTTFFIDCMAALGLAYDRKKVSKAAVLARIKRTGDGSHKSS
From the text: The identification of compounds of the invention as SCD inhibitors was readily accomplished using the SCD enzyme and microsomal assay procedure described in Talamo and Bloch (1969) Analytical Biochemistry 29:300-304.
The rat liver microsomes were collected according to the procedure described in Ozols (1990) Methods Enzm, 182:225.
Male Sprague Dawley Rats were placed on regimented fasting protocol for one week to stimulate SCD enzymatic activity. 48-hour periods were alternated between feeding and fasting to induce and down-regulate SCD activity with SCD activity being induced via carbohydrate rich diet prior to liver perfusion and collection.
The rats were anesthetized with Isoflurane inhalation anesthetic, the liver perfused with cold phosphate buffered saline (PBS), weighed, and chilled in cold homogenization buffer (250 mM sucrose, […] Tris, 1 mM EDTA, pH 7.6.
The livers were finely minced and placed in homogenization tube. 40 mL of homogenization buffer was added to the homogenization tube and the liver homogenized and centrifuged in a pre-chilled SLA-600 TC at 800G rotor for 10 min at 4° C.
Following centrifugation, the supernatant was collected and the pellet removed and discarded. The supernatant was centrifuge at 10,000 G for 35 minutes. Following centrifugation, the supernatant was collect and the pellet discarded. The supernatant was then centrifuged in a pre-chilled 45-Ti rotor at 130,000 G (41,000 RPM) for 90 minutes at 4° C.
The supernatant was then aspirated off and the collected microsomal pellet washed in 25 mL of Glycerol PBS (1×PBS 7.4, 20% Glycerol) and resuspended in 4-5 volumes of Glycerol PBS.
The protein concentration of the microsomal preparation was determined by BCA assay (Pierce) and the microsomes were aliquoted and stored at −80° C.
SCD was determined in the desaturase assay buffer. This assay buffer contained 0.1 M Tris buffer, pH 7.2, 2 mM NADH, 4.8 mM ATP, 0.5 mM CoA, 4.8 mM MgCl2, and 0.1% BSA.
The Procedure for the SCD Assay (Adapted from Talamo and Bloch (1969) Analytical Biochemistry 29:300-304)
1 μl of each compound of Formula I was added to an assay plate by a low volume (0.5-10 μL) multichannel pipette. A DMSO control was also prepared. The microsomes were quickly thawed and added to assay buffer so that a concentration of 0.4 mg/ml was achieved (0.2 mg/ml assay final). 50 μl of the microsome suspension in assay buffer was then added into each well in the compound assay plate, the plate was covered, and the microsomes preincubated with the compounds for 30 minutes on the orbital shaker, 50-75 rpm, at room temperature. […]

Structure (SMILES) | IC50 [µM]
O=C(Nc1ccc2nc(Cc3ccc(Cl)c(Cl)c3)[nH]c(=O)c2c1)OCc1ccccc1 [II., benzyl 2-(3,4-dichlorobenzyl)-4-oxo-3,4-dihydroquinazolin-6-ylcarbamate] | 1.2
O=C(CO)Nc1ccc2nc(Cc3ccc(Cl)c(Cl)c3)[nH]c(=O)c2c1 [IV., N-(2-(3,4-dichlorobenzyl)-4-oxo-3,4-dihydroquinazolin-6-yl)-2-hydroxyacetamide] | 0.93
CC(=O)OCC(=O)Nc1ccc2nc(Cc3ccc(Cl)c(Cl)c3)[nH]c(=O)c2c1 [III., 2-(2-(3,4-dichlorobenzyl)-4-oxo-3,4-dihydroquinazolin-6-ylamino)-2-oxoethyl acetate] | 0.75
O=C(Nc1ccc2c(=O)[nH]c(Cc3ccc(Cl)c(Cl)c3)nc2c1)OCc1ccccc1 [I., benzyl 2-(3,4-dichlorobenzyl)-4-oxo-3,4-dihydroquinazolin-7-ylcarbamate] | 2.5
